Test results from ChEMBL document CHEMBL5505994, “Nur77 increases mitophagy and decreases aggregation of α-synuclein by modulating the p-c-Abl/p-PHB2 Y121 in α-synuclein PFF SH-SY5Y cells and mice” (Eur J Med Chem, 2024).
The source made the active and inactive calls.

Assays:
SH-SY5Y [1] = experiment: Agonist activity at Nur77-c-Abl-PHB2 pathway in alpha-synuclein preformed fibril-induced human SH-SY5Y cells assessed as decrease in c-Abl phosphorylation at 1 uM treated for 24 hrs by Western blot analysis; format: cell-based; details: filed as agonist
SH-SY5Y [2] = experiment: Agonist activity at Nur77-c-Abl-PHB2 pathway in alpha-synuclein preformed fibril-induced human SH-SY5Y cells assessed as translocation of Nur77 into mitochondria at 1 uM treated for 24 hrs by Western blot analysis; details: filed as agonist
SH-SY5Y [3] = experiment: Agonist activity at Nur77-c-Abl-PHB2 pathway in alpha-synuclein preformed fibril-induced human SH-SY5Y cells assessed as interaction with c-Abl at 1 uM treated for 24 hrs by Co-immunoprecipitation (Co-IP) assay; format: cell-based; details: filed as agonist
SH-SY5Y [4] = experiment: Agonist activity at Nur77-c-Abl-PHB2 pathway in alpha-synuclein preformed fibril-induced human SH-SY5Y cells assessed as increase in ratio of LC3-II/LC3I at 1 uM treated for 24 hrs by Western blot analysis; format: cell-based; details: filed as agonist
SH-SY5Y [5] = experiment: Agonist activity at Nur77-c-Abl-PHB2 pathway in alpha-synuclein preformed fibril-induced human SH-SY5Y cells assessed as decrease in p62 expression at 1 uM treated for 24 hrs by Western blot analysis; format: cell-based; details: filed as agonist
SH-SY5Y [6] = experiment: Agonist activity at Nur77-c-Abl-PHB2 pathway in alpha-synuclein preformed fibril-induced human SH-SY5Y cells assessed as reduction in PHB2 phosphorylation at 1 uM treated for 24 hrs by Western blot analysis; format: cell-based; details: filed as agonist
SH-SY5Y [7] = experiment: Agonist activity at Nur77 in alpha-synuclein preformed fibril-induced human SH-SY5Y cells assessed as reduction in alpha-synuclein aggregation at 1 uM treated for 24 hrs by Western blot analysis; format: cell-based; details: filed as agonist
SH-SY5Y [8] = experiment: Agonist activity at Nur77-c-Abl-PHB2 pathway in alpha-synuclein preformed fibril-induced human SH-SY5Y cells assessed as increase in PHB2/LC3 interaction at 1 uM treated for 24 hrs by Co-immunoprecipitation (Co-IP) assay; format: cell-based; details: filed as agonist
Mus musculus [9] = organism: Mus musculus; experiment: Neuroprotection activity in alpha-synuclein preformed fibril-induced C57BL/6J mouse PD model assessed as decrease in phosphorylated c-Abl level in brain at 1 uM treated after 3 month PPF challenge measured after 14 days by Western blot analysis; format: functional, organism-based; details: time 14.0 day
Mus musculus [10] = organism: Mus musculus; experiment: Neuroprotection activity in alpha-synuclein preformed fibril-induced C57BL/6J mouse PD model assessed as decrease in phosphorylated […] level in brain at 1 uM treated after 3 month PPF challenge measured after 14 days by Western blot analysis; format: functional, organism-based; details: time 14.0 day
Mus musculus [11] = organism: Mus musculus; experiment: Neuroprotection activity in alpha-synuclein preformed fibril-induced C57BL/6J mouse PD model assessed as increase in LC3 level in brain at 1 uM treated after 3 month PPF challenge measured after 14 days by Western blot analysis; format: functional, organism-based; details: time 14.0 day
Mus musculus [12] = organism: Mus musculus; experiment: Neuroprotection activity in alpha-synuclein preformed fibril-induced C57BL/6J mouse PD model assessed as decrease in p62 expression in brain at 1 uM treated after 3 month PPF challenge measured after 14 days by Western blot analysis; format: functional, organism-based; details: time 14.0 day
Mus musculus [13] = organism: Mus musculus; experiment: Neuroprotection activity in alpha-synuclein preformed fibril-induced C57BL/6J mouse PD model assessed as decrease in pS129-alpha-synuclein in SNpc TH positive neurons in brain at 1 uM treated after 3 month PPF challenge measured after 14 days by Western blot analysis; format: functional, organism-based; details: time 14.0 day
Mus musculus [14] = organism: Mus musculus; experiment: Neuroprotection activity in alpha-synuclein preformed fibril-induced C57BL/6J mouse PD model assessed as rescue of DA neurons in brain by measuring TH positive neurons at 1 uM treated after 3 month PPF challenge measured after 14 days by immunohistochemistry; format: functional, organism-based; details: time 14.0 day

Measured: Activity

CCCCCCCC(=O)c1c(O)cc(O)cc1CC(=O)OCC
active: all assays above
